# Test results as given in US20240067632A1, “WEE1 Degrading Compounds and Uses Thereof” (Bristol-Myers Squibb Company, priority 2022, published 2024).
# Assays:
# [1] = biological target: T1, WEE1 (Homo sapiens, UniProt P30291+Q96SW2); test: WEE1-ePL degradation assay (LentiX-WEE1-ePL-GSPT1-ND cells, InCELL Hunter luminescence, 4 h); assay type: cell-based; conditions: 293T-LentiX WEE1-ePL cells; for 293T-LentiX WEE1-ePL Degradation 4 hr (Ymin): lower limit of the fit (0 = luciferase inhibitor, Ymax = DMSO control); for DC50: read-out: 293T-LentiX WEE1-ePL Degradation 4 hr (EC50)
# T1 construct: C-terminal ePL-tagged (DiscoverX, Fremont, CA) full-length WEE1 expression construct; expressed in transfected cells; host or cells: LentiX-HEK293T (Invitrogen), lentiviral transduction; co-expressing GSPT1-GN (G576N, lacking the first 158 amino acids)
# How it was run: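 Degradation EC50 was fitted by a four-parameter logistic model, with the upper limit taken from DMSO wells. Luminescence was read with InCELL Hunter reagent after 30 min at room temperature, following a 4 h, 37° C exposure of 2500 cells/well. Cells were LentiX-HEK293T carrying ePL-tagged full-length WEE1, dosed in 10 points (3-fold) from 1 or 10 uM.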
# [2] = system: MKN45 cells; test: MKN45 cell proliferation assay (Cell-Titer-Glo, 120 h); assay type: cell-based; conditions: for EC50: Homo sapiens, MKN-45, 120 h, Cell-Titer-Glo, growth inhibition, read-out: MKN45 Cell Prolif. 120 hr (EC50); for MKN45 Cell Prolif. 120 hr (Ymin-Obs): minimal percent of DMSO control observed in the concentrations tested
# Procedure: MKN45 cells were obtained from Celgene internal cell banks and cultured in RPMI complete media (RPMI-1640, 1× Penicillin/Streptomycin, 1× glutamine, 1× Sodium Pyruvate, Non-essential Amino Acids, 10% Fetal Bovine serum, all component from Thermo-Fisher). Compounds were dispensed into 384-well plates using an HP DE300 compound printer in triplicate with 8 compounds on each plate. For each compound, a 10-point dose response was printed at half-log dilutions starting at either 1 uM or 10 uM. The DMSO concentration was kept constant for a final assay concentration of 0.1% per well assuming 50 ul final media volume. Compound plates were sealed and frozen at −20 C until use.
# For each assay batch, compound plates were thawed and allowed to reach room temperature, and cells were seeded at 400 cells per well in 50 ul complete RPMI media. After 120 hours of incubation at 37 C and 5% CO2, cells were lysed by addition of 25 μL of Cell-Titer-Glo Reagent (Promega Corporation, Madison, WI), as per manufacturer's instructions, protected from light, shaken for 45 minutes, and total luminescence read by a Perkin Elmer Envision plate reader. Total luminescence signal is linearly correlated with cell number remaining in the well.
# Luminescence data was processed per plate by subtracting reagent-only “blank” well luminescence from all measured values and calculating a percent of DMSO control value for each treatment well. Then, to determine the half-maximal effective concentration (EC50) values for cell growth inhibition, a four parameter logistic model was fit to the data for each DMSO-normalized compound: Sigmoidal Dose-Response Model: (FIT=(A+((B−A)/1+((C/x)^D)))) where C is the inflection point (EC50), D is the Hill slope, and A and B are the low and high limits of the fit respectively. The lower limit of the fit (value A) is referred to as Ymin-calculated. The minimal percent of DMSO control that is observed in the concentrations tested for each compound is labeled as “Ymin-obs”, and was recorded and reported in the tables. Sigmoidal fit curves were processed and evaluated using Activity Base (IDBS, Alameda, CA).
SMILES,293T-LentiX WEE1-ePL Degradation 4 hr (Ymin) [1],DC50 [1],EC50 [2],MKN45 Cell Prolif. 120 hr (Ymin-Obs) [2]
"O=C1CCC(N2Cc3cc(O[C@H]4CCN(Cc5ccc6nc([C@H]7CC[C@@H](O)CC7)ccc6c5)C4)ccc3C2=O)C(=O)N1 (stereo partly drawn) [3-(1-oxo-5-{[(3S)-1-({2-[(1s,4s)-4-hydroxycyclohexyl]quinolin-6-yl}methyl)pyrrolidin-3-yl]oxy}-2,3-dihydro-1H-isoindol-2-yl)piperidine-2,6-dione]",33,1.03 nM,0.329 nM,7.956
"CO[C@H]1CC[C@@H](c2ccc3cc(CN4CC[C@H](Oc5ccc6c(c5)CN(C5CCC(=O)NC5=O)C6=O)C4)ccc3n2)CC1 (stereo partly drawn) [3-(1-oxo-5-{[(3S)-1-({2-[(1s,4s)-4-methoxycyclohexyl]quinolin-6-yl}methyl)pyrrolidin-3-yl]oxy}-2,3-dihydro-1H-isoindol-2-yl)piperidine-2,6-dione]",30,1.12 nM,1.14 nM,9.583
"O=C1CCC(N2Cc3cc(O[C@H]4CCN(Cc5ccc6nc([C@H]7CCOC7)ccc6c5)C4)ccc3C2=O)C(=O)N1 (stereo partly drawn) [3-(1-oxo-5-{[(3S)-1-({2-[(3R)-oxolan-3-yl]quinolin-6-yl}methyl)pyrrolidin-3-yl]oxy}-2,3-dihydro-1H-isoindol-2-yl)piperidine-2,6-dione]",29,2.71 nM,6.07 nM,8.454
"O=C1CCC(N2Cc3cc(O[C@H]4CCN(Cc5ccc6nc([C@@H]7CCOC7)ccc6c5)C4)ccc3C2=O)C(=O)N1 (stereo partly drawn) [3-(1-oxo-5-{[(3S)-1-({2-[(3S)-oxolan-3-yl]quinolin-6-yl}methyl)pyrrolidin-3-yl]oxy}-2,3-dihydro-1H-isoindol-2-yl)piperidine-2,6-dione]",30,2.41 nM,2.45 nM,8.77
"CC(C)OCc1ccc2cc(CN3CC[C@H](Oc4ccc5c(c4)CN(C4CCC(=O)NC4=O)C5=O)C3)ccc2n1 (stereo partly drawn) [3-(1-oxo-5-{[(3S)-1-({2-[(propan-2-yloxy)methyl]quinolin-6-yl}methyl)pyrrolidin-3-yl]oxy}-2,3-dihydro-1H-isoindol-2-yl)piperidine-2,6-dione]",36,6.51 nM,3.4 nM,8.147
"O=C1CCC(N2Cc3cc(O[C@H]4CCN(Cc5ccnc6c5CCCO6)C4)ccc3C2=O)C(=O)N1 (stereo partly drawn) [3-(1-oxo-5-{[(3S)-1-({2H,3H,4H-pyrano[2,3-b]pyridin-5-yl}methyl)pyrrolidin-3-yl]oxy}-2,3-dihydro-1H-isoindol-2-yl)piperidine-2,6-dione]",44,38.9 nM,489 nM,27.04
"O=C1CCC(N2Cc3cc(O[C@H]4CCN(Cc5cnc6c(c5)CCCO6)C4)ccc3C2=O)C(=O)N1 (stereo partly drawn) [3-(1-oxo-5-{[(3S)-1-({2H,3H,4H-pyrano[2,3-b]pyridin-6-yl}methyl)pyrrolidin-3-yl]oxy}-2,3-dihydro-1H-isoindol-2-yl)piperidine-2,6-dione]",33.245,35.4 nM,1120 nM,23.52
"O=C1CCC(N2Cc3cc(O[C@H]4CCN(Cc5cncc6c5CCCO6)C4)ccc3C2=O)C(=O)N1 (stereo partly drawn) [3-(1-oxo-5-{[(3S)-1-({2H,3H,4H-pyrano[2,3-c]pyridin-5-yl}methyl)pyrrolidin-3-yl]oxy}-2,3-dihydro-1H-isoindol-2-yl)piperidine-2,6-dione]",29.38,24.6 nM,69.9 nM,11.03
"O=C1CCC(N2Cc3cc(O[C@H]4CCN(Cc5cc6c(cn5)OCCC6)C4)ccc3C2=O)C(=O)N1 (stereo partly drawn) [3-(1-oxo-5-{[(3S)-1-({2H,3H,4H-pyrano[2,3-c]pyridin-6-yl}methyl)pyrrolidin-3-yl]oxy}-2,3-dihydro-1H-isoindol-2-yl)piperidine-2,6-dione]",33,12.3 nM,153 nM,12.988
"O=C1CCC(N2Cc3cc(O[C@H]4CCN(Cc5nccc6c5CCCO6)C4)ccc3C2=O)C(=O)N1 (stereo partly drawn) [3-(1-oxo-5-{[(3S)-1-({2H,3H,4H-pyrano[3,2-c]pyridin-5-yl}methyl)pyrrolidin-3-yl]oxy}-2,3-dihydro-1H-isoindol-2-yl)piperidine-2,6-dione]",36,16.1 nM,122 nM,16.99
"O=C1CCC(N2Cc3cc(O[C@H]4CCN(Cc5cnc6c(c5)CCOC6)C4)ccc3C2=O)C(=O)N1 (stereo partly drawn) [3-(1-oxo-5-{[(3S)-1-({5H,6H,8H-pyrano[3,4-b]pyridin-3-yl}methyl)pyrrolidin-3-yl]oxy}-2,3-dihydro-1H-isoindol-2-yl)piperidine-2,6-dione]",30,27.3 nM,252 nM,8.89

# Further lines, with some results ahead:
293T-LentiX WEE1-ePL Degradation 4 hr (Ymin) [1],DC50 [1],EC50 [2],SMILES,MKN45 Cell Prolif. 120 hr (Ymin-Obs) [2]
51,62.7 nM,1280 nM,"O=C1CCC(N2Cc3cc(O[C@H]4CCN(Cc5ccnc6c5CCOC6)C4)ccc3C2=O)C(=O)N1 (stereo partly drawn) [3-(1-oxo-5-{[(3S)-1-({5H,6H,8H-pyrano[3,4-b]pyridin-4-yl}methyl)pyrrolidin-3-yl]oxy}-2,3-dihydro-1H-isoindol-2-yl)piperidine-2,6-dione]",56.39
35,39.9 nM,456 nM,"O=C1CCC(N2Cc3cc(O[C@H]4CCN(Cc5cnc6c(c5)COCC6)C4)ccc3C2=O)C(=O)N1 (stereo partly drawn) [3-(1-oxo-5-{[(3S)-1-({5H,7H,8H-pyrano[4,3-b]pyridin-3-yl}methyl)pyrrolidin-3-yl]oxy}-2,3-dihydro-1H-isoindol-2-yl)piperidine-2,6-dione]",11.67
28,1.99 nM,3.39 nM,"O=C1CCC(N2Cc3cc(O[C@H]4CCN(Cc5cc6cc([C@H]7CCOC7)ccc6cn5)C4)ccc3C2=O)C(=O)N1 (stereo partly drawn) [3-(1-oxo-5-{[(3S)-1-({6-[(3R)-oxolan-3-yl]isoquinolin-3-yl}methyl)pyrrolidin-3-yl]oxy}-2,3-dihydro-1H-isoindol-2-yl)piperidine-2,6-dione]",6.69
28,5.38 nM,12.9 nM,"O=C1CCC(N2Cc3cc(O[C@H]4CCN(Cc5cc6cc([C@@H]7CCOC7)ccc6cn5)C4)ccc3C2=O)C(=O)N1 (stereo partly drawn) [3-(1-oxo-5-{[(3S)-1-({6-[(3S)-oxolan-3-yl]isoquinolin-3-yl}methyl)pyrrolidin-3-yl]oxy}-2,3-dihydro-1H-isoindol-2-yl)piperidine-2,6-dione]",5.87
28,1.41 nM,2.96 nM,"O=C1CCC(N2Cc3cc(O[C@H]4CCN(Cc5cc6ccc([C@H]7CCOC7)cc6cn5)C4)ccc3C2=O)C(=O)N1 (stereo partly drawn) [3-(1-oxo-5-{[(3S)-1-({7-[(3R)-oxolan-3-yl]isoquinolin-3-yl}methyl)pyrrolidin-3-yl]oxy}-2,3-dihydro-1H-isoindol-2-yl)piperidine-2,6-dione]",8.5
30,1.66 nM,1.84 nM,"O=C1CCC(N2Cc3cc(O[C@H]4CCN(Cc5cc6ccc([C@@H]7CCOC7)cc6cn5)C4)ccc3C2=O)C(=O)N1 (stereo partly drawn) [3-(1-oxo-5-{[(3S)-1-({7-[(3S)-oxolan-3-yl]isoquinolin-3-yl}methyl)pyrrolidin-3-yl]oxy}-2,3-dihydro-1H-isoindol-2-yl)piperidine-2,6-dione]",7.635
79,3330 nM,> 10000 nM,"O=C1CCC(N2Cc3cc(O[C@H]4CCN(Cc5ccc6c(c5)CCCN6)C4)ccc3C2=O)C(=O)N1 (stereo partly drawn) [3-(1-oxo-5-{[(3S)-1-[(1,2,3,4-tetrahydroquinolin-6-yl)methyl]pyrrolidin-3-yl]oxy}-2,3-dihydro-1H-isoindol-2-yl)piperidine-2,6-dione]",93.175
